Laboratory results reported in article PMC12298351, “Novel 3,19-(N-Phenyl-3-(4-fluorophenyl)-pyrazole) Acetal of Andrographolide Promotes Cell Cycle Arrest and Apoptosis in MDA-MB-231 Breast Cancer Cells” (Pharmaceuticals, 2025).

Key:
HT29 = conditions: HT29, Colon
IGROV1 = conditions: IGROV1, Ovarian
CAKI-1 = conditions: CAKI-1, Renal
SK-MEL-5 = conditions: SK-MEL-5, Melanoma
MALME-3M = conditions: Melanoma
786-0 = conditions: 786-0, Renal
SNB-75 = conditions: SNB-75, CNS
SF-268 = conditions: SF-268, CNS
DU-145 = conditions: DU-145, Prostate
SW-620 = conditions: SW-620, Colon
SNB-19 = format: cell-based; conditions: SNB-19, CNS
SK-MEL-28 = conditions: SK-MEL-28, Melanoma
COLO 205 = conditions: COLO 205, Colon
UO-31 = conditions: UO-31, Renal
SK-OV-3 = conditions: SK-OV-3, Ovarian
KM12 = conditions: KM12, Colon
K-562 = conditions: K-562, Leukemia
MDA-MB-468 = conditions: MDA-MB-468, Breast
OVCAR-5 = conditions: OVCAR-5, Ovarian
MCF7 = conditions: MCF7, Breast
BT-549 = format: cell-based; conditions: BT-549, Breast
[1] = read-out: 50% lethal concentration (LC50)
[2] = read-out: 50% lethal concentration (LC50), Renal

`C=C1CCC2C3(C)COC(c4cn(-c5ccccc5)nc4-c4ccc(C)cc4)OC3CCC2(C)C1CC=C1C(=O)OCC1O` (stereo not shown) [1i] was tested, and the GI50 (HT29) was 1.9 µM, the Total growth inhibition (TGI) (HT29) was 4.58 µM and the CC50 (HT29; [1]) was greater than 100 µM. It also gave a GI50 (IGROV1) of 3.95 µM, a Total growth inhibition (TGI) (IGROV1) of 12.5 µM and a CC50 (IGROV1; [1]) greater than 100 µM. For the same molecule, the GI50 (CAKI-1) was 1.71 µM, the Total growth inhibition (TGI) (CAKI-1) was 3.37 µM and the CC50 (CAKI-1; [1]) was 6.64 µM. The GI50 (SK-MEL-5) was 1.59 µM, the Total growth inhibition (TGI) (SK-MEL-5) was 2.96 µM and the CC50 (SK-MEL-5; [1]) was 5.49 µM. It also gave a GI50 (MALME-3M) of 2.46 µM, a Total growth inhibition (TGI) (MALME-3M) of 4.28 µM and a Total growth inhibition (TGI) (NCI-H460; NCI-H460, Non-Small Cell Lung) of 3.56 µM. The GI50 (NCI-H460; NCI-H460, Non-Small-Cell Lung) was 1.83 µM, the CC50 (NCI-H460; read-out: 50% lethal concentration (LC50), NCI-H460, Non-Small Cell Lung) was 6.91 µM and the GI50 (786-0) was 1.77 µM. It also gave a Total growth inhibition (TGI) (786-0) of 3.69 µM, a GI50 (SNB-75) of 1.71 µM and a Total growth inhibition (TGI) (SNB-75) of 2.99 µM. It also gave a CC50 (SNB-75; [1]) of 6.55 µM, a Total growth inhibition (TGI) (A549/ATCC; Non-Small Cell Lung) of 13.5 µM and a GI50 (A549/ATCC; Non-Small-Cell Lung) of 3.09 µM. It also gave a CC50 (A549/ATCC; read-out: 50% lethal concentration (LC50), Non-Small Cell Lung) greater than 100 µM, a Total growth inhibition (TGI) (NCI-H226; NCI-H226, Non-Small Cell Lung) of 2.95 µM and a GI50 (NCI-H226; NCI-H226, Non-Small-Cell Lung) of 1.47 µM. The CC50 (NCI-H226; read-out: 50% lethal concentration (LC50), NCI-H226, Non-Small Cell Lung) was 5.92 µM, the GI50 (HS 578T; Breast) was 1.85 µM and the Total growth inhibition (TGI) (HS 578T; Breast) was 3.41 µM. It also gave a CC50 (HS 578T; read-out: 50% lethal concentration (LC50), Breast) of 6.28 µM, a GI50 (SF-268) of 2.61 µM and a Total growth inhibition (TGI) (SF-268) of 7.58 µM. The CC50 (SF-268; [1]) was 55.4 µM, the GI50 (DU-145) was 2.05 µM and the Total growth inhibition (TGI) (DU-145) was 4.19 µM. It also gave a CC50 (DU-145; [1]) of 8.55 µM, a GI50 (SW-620) of 5.42 µM and a CC50 (SW-620; [1]) greater than 100 µM. The GI50 (SNB-19) was 1.36 µM, the GI50 (MDA-MB-231; MDA-MB-231, Breast) was 1.7 µM and the Total growth inhibition (TGI) (MDA-MB-231; MDA-MB-231/ATCC, Breast) was 3.28 µM. The CC50 (MDA-MB-231; read-out: 50% lethal concentration (LC50), MDA-MB-231/ATCC, Breast) was 6.33 µM, the Total growth inhibition (TGI) (HOP-92; HOP-92, Non-Small Cell Lung) was 3.14 µM and the GI50 (HOP-92; HOP-92, Non-Small-Cell Lung) was 1.43 µM. For the same molecule, the CC50 (HOP-92; read-out: 50% lethal concentration (LC50), HOP-92, Non-Small Cell Lung) was 6.88 µM, the GI50 (NCI/ADR-RES; Ovarian) was 1.65 µM and the Total growth inhibition (TGI) (NCI/ADR-RES; Ovarian) was 3.71 µM. The CC50 (NCI/ADR-RES; read-out: 50% lethal concentration (LC50), Ovarian) was 8.34 µM, the GI50 (SK-MEL-28) was 1.74 µM and the Total growth inhibition (TGI) (SK-MEL-28) was 3.33 µM. For the same molecule, the CC50 (SK-MEL-28; [1]) was 6.39 µM, the GI50 (COLO 205) was 1.97 µM and the Total growth inhibition (TGI) (COLO 205) was 4.5 µM. It also gave a GI50 (UO-31) of 1.77 µM, a Total growth inhibition (TGI) (UO-31) of 2.67 µM and a CC50 (UO-31; [1]) of 5.36 µM. For the same molecule, the GI50 (SK-OV-3) was 3.47 µM, the Total growth inhibition (TGI) (SK-OV-3) was 12.1 µM and the CC50 (SK-OV-3; [1]) was greater than 100 µM. For the same molecule, the GI50 (LOX IMVI; Melanoma) was 1.43 µM, the Total growth inhibition (TGI) (LOX IMVI; Melanoma) was 2.74 µM and the CC50 (LOX IMVI; read-out: 50% lethal concentration (LC50), Melanoma) was 5.25 µM. The GI50 (KM12) was 3.01 µM, the Total growth inhibition (TGI) (KM12) was 7.93 µM and the GI50 (K-562) was 3.82 µM. The Total growth inhibition (TGI) (K-562) was greater than 100 µM, the CC50 (K-562; [1]) was greater than 100 µM and the GI50 (MDA-MB-468) was 1.85 µM. The Total growth inhibition (TGI) (MDA-MB-468) was 3.45 µM, the CC50 (MDA-MB-468; [1]) was 6.43 µM and the GI50 (SN12C; Renal) was 1.66 µM. It also gave a Total growth inhibition (TGI) (SN12C; Renal) of 3.44 µM, a CC50 (SN12C; [2]) of 7.15 µM and a GI50 (OVCAR-5) of 1.93 µM. For the same molecule, the Total growth inhibition (TGI) (OVCAR-5) was 4.59 µM, the CC50 (OVCAR-5; [1]) was 40.5 µM and the GI50 (MCF7) was 1.57 µM. For the same molecule, the Total growth inhibition (TGI) (MCF7) was 4.6 µM, the CC50 (MCF7; [1]) was 5.4 µM and the GI50 (BT-549) was 1.2 µM. For the same molecule, the Total growth inhibition (TGI) (BT-549) was 3.02 µM, the GI50 (ACHN; Renal) was 1.83 µM and the Total growth inhibition (TGI) (ACHN; Renal) was 3.5 µM. For the same molecule, the CC50 (ACHN; [2]) was 6.67 µM.
